These results are taken from ChEMBL document CHEMBL1212746, “Assessment of the in vitro kinetic activity of caspofungin against Candida glabrata” (2010).

Assay [1] deals with Nakaseomyces glabratus. In words: Antifungal activity against Candida glabrata assessed as fungicidal activity by broth microdilution assay. Type of assay: functional.
For assay [2], the system named is Nakaseomyces glabratus. In words: Antifungal activity against Candida glabrata by broth microdilution assay. The format is functional.
Assay [3] deals with Nakaseomyces glabratus. Nature of the assay: Antifungal activity against fluconazole-resistant Candida glabrata isolate 05 in presence of amphotericin B by broth microdilution assay. (In general: Broth dilution looks for growth in wells or tubes with falling amounts of substance.)
For assay [4], the system named is Nakaseomyces glabratus. Nature of the assay: Antifungal activity against fluconazole-resistant Candida glabrata isolate 04 by broth microdilution assay. Type of assay: functional.
The subject of assay [5] is Nakaseomyces glabratus. In words: Antifungal activity against Candida glabrata assessed as time to kill at 4 ug/ml. Type of assay: functional.
Assay [6] concerns Nakaseomyces glabratus. In words: Antifungal activity against Candida glabrata assessed as time to kill at 1 ug/ml. Type of assay: functional.
Assay [7] has as its system Nakaseomyces glabratus. Nature of the assay: Antifungal activity against fluconazole-resistant Candida glabrata isolate 04 in presence of fluconazole by broth microdilution assay. Type of assay: functional.
Assay [8] relates to Nakaseomyces glabratus. Nature of the assay: Antifungal activity against fluconazole-resistant Candida glabrata isolate 03 by broth microdilution assay. Type of assay: functional.
Assay [9] deals with Nakaseomyces glabratus. In words: Antifungal activity against fluconazole-resistant Candida glabrata isolate 02 by broth microdilution assay. Type of assay: functional.
Assay [10] has as its system Nakaseomyces glabratus. Nature of the assay: Antifungal activity against fluconazole-resistant Candida glabrata isolate 01 by broth microdilution assay. The format is functional.
The test system of assay [11] is Nakaseomyces glabratus. Nature of the assay: Antifungal activity against fluconazole-resistant Candida glabrata isolate 05 by broth microdilution assay. Type of assay: functional.
Assay [12] has as its system Nakaseomyces glabratus. In words: Antifungal activity against fluconazole-resistant Candida glabrata isolate 01 in presence of fluconazole by broth microdilution assay. The format is functional.
Assay [13] concerns Nakaseomyces glabratus. In words: Antifungal activity against fluconazole-resistant Candida glabrata isolate 02 in presence of voriconazole by broth microdilution assay.
Assay [14] has as its system Nakaseomyces glabratus. In words: Antifungal activity against fluconazole-susceptible Candida glabrata isolate 03 in presence of fluconazole by broth microdilution assay.

SMILES strings stand for the structures. Values after ≈ are worked out from the molar mass of the structure shown. Some results are limits rather than exact numbers.

The term MFC denotes the lowest tested concentration that kills the fungus rather than only halting it. As usually defined, the MIC50 is the lowest concentration that inhibits either 50% of growth or 50% of the strains tested, depending on the study. As a reminder, the MIC90 is an inhibitory concentration at the 90% level, which refers to growth in some studies and to a panel of isolates in others. Read a low MIC90 as greater potency. Take `C[C@@H]1[C@H](O)[C@@H](C)/C=C/C=C/C=C/C=C/C=C/C=C/C=C/[C@H](O[C@@H]2O[C@H](C)[C@@H](O)[C@H](N)[C@@H]2O)C[C@@H]2O[C@](O)(C[C@@H](O)C[C@@H](O)[C@H](O)CC[C@@H](O)C[C@@H](O)CC(=O)O[C@H]1C)C[C@H](O)[C@H]2C(=O)O` [AMPHOTERICIN B]: the MFC in [1] is 1 µg/mL. In assay [2], the MIC50 worked out at 0.5 µg/mL (≈ 0.541 µM) and the MIC90 came to 1 µg/mL (≈ 1.08 µM).

With `C[C@@H](c1ncncc1F)[C@](O)(Cn1cncn1)c1ccc(F)cc1F` [VORICONAZOLE], in [1], the minimal fungicidal concentration (MFC) is above 32 µg/mL. In [2], the MIC50 amounted to 0.125 µg/mL (≈ 0.358 µM) and the MIC90 is 1 µg/mL (≈ 2.86 µM).

As usually defined, the MIC is the smallest concentration in the dilution series that meets the test's criterion for growth inhibition. For `CC[C@H](C)C[C@H](C)CCCCCCCCC(=O)N[C@H]1C[C@@H](O)[C@@H](NCCN)NC(=O)[C@@H]2[C@@H](O)CCN2C(=O)[C@H]([C@H](O)CCN)NC(=O)[C@H]([C@H](O)[C@@H](O)c2ccc(O)cc2)NC(=O)[C@@H]2C[C@@H](O)CN2C(=O)[C@H]([C@@H](C)O)NC1=O` [CASPOFUNGIN], the “fractional inhibitory concentration index (FICI)” value in [3] is 1.06; in [7], 0.5625; in [12], below 0.5; in assay [13], 0.56; in assay [14] it was 0.185. Besides, the minimum inhibitory concentration (MIC) came to 0.5 µg/mL (≈ 0.457 µM) in [4]; 0.5 µg/mL (≈ 0.457 µM) in assay [8]; 0.25 µg/mL (≈ 0.229 µM) in assay [9]; 0.5 µg/mL (≈ 0.457 µM) in assay [10]; 0.25 µg/mL (≈ 0.229 µM) in assay [11]. Also, the Time in [5] is 2 h; in [6], 4 h. The MFC in assay [1] was 4 µg/mL. This compound registered an MIC50 in assay [2] of 0.5 µg/mL (≈ 0.457 µM). In addition, in assay [2], the MIC90 amounted to 2 µg/mL (≈ 1.83 µM).

With `OC(Cn1cncn1)(Cn1cncn1)c1ccc(F)cc1F` [FLUCONAZOLE], the MIC in assay [4] is 32 µg/mL (≈ 104 µM); in assay [8], 2 µg/mL (≈ 6.53 µM); in assay [9], 64 µg/mL (≈ 209 µM); in assay [10] it was 128 µg/mL (≈ 418 µM); in assay [11], 1 µg/mL (≈ 3.27 µM). The minimum fungicidal concentration (MFC) in [1] was above 128 µg/mL. Besides, the MIC50 in assay [2] is 4 µg/mL (≈ 13.1 µM). In addition, the MIC90 in [2] was determined as 32 µg/mL (≈ 104 µM).
